For 15 compounds, IC50 results are on record in patent publication US20250270208A1, “BICYCLIC HETEROCYCLES AS MRGPRX2 ANTAGONISTS” (Incyte Corporation, priority 2023, published 2025).

The structures appear in SMILES notation.

What all share (type): cell-based
In test [1] the target is T1, MRGPRX2 (Homo sapiens, UniProt Q96LB1).
T1 sequence (Q96LB1 1-330): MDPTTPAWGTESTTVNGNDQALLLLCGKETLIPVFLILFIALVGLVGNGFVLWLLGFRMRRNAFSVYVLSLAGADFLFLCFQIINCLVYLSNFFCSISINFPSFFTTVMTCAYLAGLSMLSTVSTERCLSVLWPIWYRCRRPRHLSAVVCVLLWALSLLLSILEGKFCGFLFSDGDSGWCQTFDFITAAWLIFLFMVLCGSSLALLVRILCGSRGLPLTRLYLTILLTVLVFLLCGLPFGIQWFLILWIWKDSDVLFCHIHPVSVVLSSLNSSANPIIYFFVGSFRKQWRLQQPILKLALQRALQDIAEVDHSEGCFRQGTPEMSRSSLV
Kind of test: MRGPRX2 IP1 HTRF assay. The note with it: CHO-K1 cells stably expressing human MRGPRX2; IP1 accumulation; agonist Cortistatin 14 1 μM. Details: host or cells: CHO-K1. As to the method:
This assay measures compound inhibition of myo-Inositol 1 phosphate (IP1) accumulation in CHO-K1 cells. Chinese hamster ovary (CHO-K1) cells stably expressing human MRGPRX2 were purchased from GenScript (Piscataway, NJ).
For the HTRF IP1 determination, an IP-One GqKit (Perkin Elmer Cisbio, Waltham, MA), which includes all reagents and buffers in this protocol, was used. The cells were maintained in culture medium (Ham's F-12K) containing 10% (v/v) FBS, and 200 μg/mL Zeocin. For the assay, the cells were harvested and resuspended in culture medium with 2% FBS and without Zeocin, then were passed through a 40 μm filter. Cells were added at 20000 cells in a 5 μL/well to a 384-well white small volume cell culture plate (Greiner VWR, Radnor, PA) which contained 50 nL/well of test compound serially diluted at a selected concentration range in DMSO. 5 μL/well of prepared 2× Stimulation Buffer 2 was then added to plates and was incubated at 37° C. with 5% CO2 for 1 h. 5 μL/well of agonist Cortistatin 14 (Bio-TechneR&D Systems, Minneapolis, MN) in 1× Stimulation Buffer 2, for a 1 μM final concentration, was then added to plates and incubated at 37° C. with 5% CO2 for 1 h. 6 μL/well of 1:20 diluted Detection Reagent Mix (d2 and Cryptate) was added to the plates and incubated for 1 h in the dark. Plates were read on the PHERAstar microplate reader (BMG Labtech Cary, NC) to determine the HTRF ratio of the acceptor and donor emission signals. The IP1 concentrations were calculated from a standard curve following the IP-One GQ kit instructions. Wells with DMSO only and wells with high concentration of reference antagonist were used as controls for normalization. Compound IC50 curves were globally fitted with 3- or 4-parameter Hill equation in a Genedata Screener (Genedata Basel, Switzerland).
(TR-FRET usually uses a lanthanide donor and a delayed reading to cut background.)

Test [2] deals with T1, MRGPRX2. Put plainly: MRGPRX2 β-Arrestin assay. The note with it: PathHunter CHO-K1 MRGPRX2 β-Arrestin cell line; agonist Cortistatin 14 0.25 μM. Also on record: host or cells: PathHunter CHO-K1. From the text: This assay measures compound inhibition of β-Arrestin recruitment, which is part of the G protein-independent pathway that results from the ligand-activated GPCR phosphorylation by specific GPCR kinases. The PathHunter CHO-K1 MRPGRX2 β-Arrestin Cell line stably expressing ProLink tagged MRGPRX2 and Enzyme Acceptor Tagged β-Arrestin was purchased from Eurofins DiscoverX, (Fremont, CA).
The cells were maintained in culture medium from the Europhins DiscoverX Cell Culture Kit-107 which includes FBS, hygromycin B and G418. For the assay, the cells were harvested and were resuspended with Cell Plating Reagent 2 (Eurofins DiscoverX). Cells were added 10000 cells in 25 μL/well to a 384-well black cell culture plate (Greiner VWR, Radnor, PA) which contained 125 nL/well of compound at a selected serially diluted concentration range or DMSO. The plate was incubated at 37° C. with 5% CO2 for 1 h. 2 μL/well of agonist Cortistatin 14 was diluted in Protein Dilution Buffer, (Eurofins DiscoverX) for a final concentration of 0.25 μM, was added and the plate was incubated at 37° C. with 5% CO2 for 90 min. 14 μL/well of Detection Reagent Mix (PathHunter Detection Kit, Eurofins DiscoverX) was added to the plates and further incubated for 1 h in the dark. Plates were read on the PHERAstar microplate reader (BMG Labtech Cary, NC) measuring luminescence 0.1 to 1 s per well. Data was normalized using DMSO only wells and wells with high concentration of reference antagonist as controls. Compound IC50 curves were globally fitted with 3- or 4-parameter Hill equation in a Genedata Screener (Genedata Basel, Switzerland).

In test [3] the target is T1, MRGPRX2. Kind of test: MRGPRX2 FLIPR calcium mobilization assay. Also on record: host or cells: CHO-K1. The note with it: CHO-K1 cells stably expressing human MRGPRX2; Ca2+ release; agonist Cortistatin-14 at EC80. The protocol: Chinese hamster ovary (CHO-K1) cells stably expressing human MRGPRX2 were purchased from Genescript (Piscataway, NJ). The cells were maintained in culture medium (Ham's F-12K) containing 10% (v/v) FBS, 200 μg/mL Zeocin, 100 units/mL penicillin G and 100 μg/mL streptomycin (Life Technologies, Carlsbad, CA). For the assay, the cells were harvested and resuspended with culture medium without Zeocin before plating at 8000 cells per well in 20 μL in 384-well black clear bottom cell culture plates (VWR, Radnor, PA). After 24 hour culture at 37° C. and 5% CO2, the cells were loaded with 20 μL/well of calcium dye (FLIPR Calcium 6 Assay Kit, Molecular Devices, San Jose, CA) diluted in loading buffer (1× Hank's Balanced Salt Solution (HBSS), 5 mM probenecid, 20 mM 4-(2-hydroxyethyl)-1-piperazineethanesulfonic acid (HEPES), pH 7.4, VWR, Radnor, PA) followed with 45 min incubation at 37° C. and 40 min. at r.t. in the dark. Cells were then treated with the addition of 10 uL/well test compounds with a range of increasing concentrations diluted in the assay buffer (1×HBSS, 20 mM HEPES, pH 7.4, VWR, Radnor, PA) with FLIPR Penta (Molecular Devices. San Jose, CA) and incubated for 30 min. at r.t. Ca^2+ release was measured with FLIPR Penta with 10 s basal fluorescence measurement, then 12.5 μL of 5× agonist Cortistatin-14 (Tocris, Minneapolis, MN) at final concentration corresponding to the EC80 were added followed with continued fluorescence signal monitoring for an additional 110 s. The base line adjusted (median of first 10 s base line) max value of the Relative Fluorescence Unit (RFU) was plotted against compound concentrations. Wells with no compound were served as the positive controls, and wells with high concentration of reference antagonist were used as negative controls. IC50 curves were globally fitted with 3- or 4-parameter Hill equation in a Genedata Screener (Genedata Basel, Switzerland).

One may read the IC50 as the concentration at which inhibition is half-maximal.

Turning to `Cn1cc2c(N[C@@H]3CCC[C@H](Nc4cc(C(F)(F)F)nc5ccc(Cl)cc45)C3)nccc2n1` [Example 1, (1S,3R)-N^1-(6-Chloro-2-(trifluoromethyl)quinolin-4-yl)-N^3-(2-methyl-2H-pyrazolo[4,3-c]pyridin-4-yl)cyclohexane-1,3-diamine], the IC50 on MRGPRX2 [1] was in the range of 100 to 1000 nM; on MRGPRX2 [2], 0.1 to 100 nM; at MRGPRX2 [3], 0.1 to 100 nM.

For the compound `Cn1ncc2ccnc(N[C@@H]3CCC[C@H](Nc4cc(C(F)(F)F)nc5ccc(Cl)cc45)C3)c21` [Example 2, (1S,3R)-N^1-(6-Chloro-2-(trifluoromethyl)quinolin-4-yl)-N^3-(1-methyl-1H-pyrazolo[3,4-c]pyridin-7-yl)cyclohexane-1,3-diamine], the IC50 at MRGPRX2 [1] was 100 to 1000 nM; at MRGPRX2 [3] it was 0.1 to 100 nM.

As to `FC(F)(F)c1cc(N[C@H]2CCC[C@@H](Nc3cc(N4CCOCC4)ccn3)C2)c2cc(Cl)ccc2n1` [Example 3, (1S,3R)-N^1-(6-Chloro-2-(trifluoromethyl)quinolin-4-yl)-N^3-(4-morpholinopyridin-2-yl)cyclohexane-1,3-diamine], the IC50 at MRGPRX2 [1] and at MRGPRX2 [3] was 100 to 1000 nM each time.

In the case of `FC(F)(F)c1cc(N[C@H]2CCC[C@@H](Nc3nccc4cnccc34)C2)c2cc(Cl)ccc2n1` [Example 6, (1S,3R)-N^1-(6-Chloro-2-(trifluoromethyl)quinolin-4-yl)-N^3-(2,6-naphthyridin-1-yl)cyclohexane-1,3-diamine], the IC50 lay within 100 to 1000 nM at MRGPRX2 [1] and 0.1 to 100 nM at MRGPRX2 [3].

For `Cn1cnc2ccnc(N[C@H]3CC[C@@H](Nc4cc(C(F)(F)F)nc5ccc(Cl)cc45)CC3)c21` [Example 7, (1s,4s)-N^1-(6-Chloro-2-(trifluoromethyl)quinolin-4-yl)-N^4-(3-methyl-3H-imidazo[4,5-c]pyridin-4-yl)cyclohexane-1,4-diamine], the IC50 on MRGPRX2 [1] and at MRGPRX2 [3] was 0.1 to 100 nM each time.

In the case of `Cn1cnc2ncnc(N[C@@H]3CCC[C@H](Nc4cc(C(F)(F)F)nc5ccc(Cl)cc45)C3)c21` [Example 8, (1S,3R)-N^1-(6-Chloro-2-(trifluoromethyl)quinolin-4-yl)-N^3-(7-methyl-7H-purin-6-yl)cyclohexane-1,3-diamine], the IC50 at MRGPRX2 [1] and on MRGPRX2 [3] was 0.1 to 100 nM in each case.

For the compound `FC(F)(F)c1cc(N[C@H]2CCC[C@@H](Nc3ccccn3)C2)c2cc(Cl)ccc2n1` [Example 12, (1S,3R)-N^1-(6-Chloro-2-(trifluoromethyl)quinolin-4-yl)-N^3-(pyridin-2-yl)cyclohexane-1,3-diamine], the IC50 on MRGPRX2 [1] was in the range of 100 to 1000 nM; on MRGPRX2 [3], 0.1 to 100 nM.

Consider `FC(F)(F)c1cc(N[C@H]2CCC[C@@H](Nc3nccc4nccn34)C2)c2cc(Cl)ccc2n1` [Example 18, (1S,3R)-N^1-(6-Chloro-2-(trifluoromethyl)quinolin-4-yl)-N^3-(imidazo[1,2-c]pyrimidin-5-yl)cyclohexane-1,3-diamine], for which the IC50 on MRGPRX2 [1] and at MRGPRX2 [2] was 0.1 to 100 nM each time.

Regarding `FC(F)(F)c1cc(N[C@H]2CCC[C@@H](Nc3ccnc4ncccc34)C2)c2cc(Cl)ccc2n1` [Example 27, (1S,3R)-N^1-(6-Chloro-2-(trifluoromethyl)quinolin-4-yl)-N^3-(1,8-naphthyridin-4-yl)cyclohexane-1,3-diamine], the figures for the IC50 at MRGPRX2 [1] and on MRGPRX2 [3] were 100 to 1000 nM and 0.1 to 100 nM, respectively.

As for `Fc1ccc2nc(C(F)(F)F)cc(N[C@H]3CCC[C@@H](Nc4nccn5cncc45)C3)c2c1` [Example 28, (1S,3R)-N^1-(6-fluoro-2-(trifluoromethyl)quinolin-4-yl)-N^3-(imidazo[1,5-a]pyrazin-8-yl)cyclohexane-1,3-diamine], the IC50 on MRGPRX2 [1] and on MRGPRX2 [3] was 0.1 to 100 nM in each case.

As to `FC(F)(F)c1cc(N[C@H]2CCC[C@@H](Nc3nccn4cncc34)C2)c2cc(Br)ccc2n1` [Example 29, (1S,3R)-N^1-(6-bromo-2-(trifluoromethyl)quinolin-4-yl)-N^3-(imidazo[1,5-a]pyrazin-8-yl)cyclohexane-1,3-diamine], the IC50 on MRGPRX2 [1] and at MRGPRX2 [3] was 0.1 to 100 nM each time.

With `FC(F)(F)c1cc(N[C@H]2CCC[C@@H](Nc3nccn4nccc34)C2)c2cc(Cl)ccc2n1` [Example 30, (1S,3R)-N^1-(6-Chloro-2-(trifluoromethyl)quinolin-4-yl)-N^3-(pyrazolo[1,5-a]pyrazin-4-yl)cyclohexane-1,3-diamine], the IC50 at MRGPRX2 [1] and at MRGPRX2 [3] was 0.1 to 100 nM throughout.

For `Cn1ncc2c(N[C@@H]3CCC[C@H](Nc4cc(C(F)(F)F)nc5ccc(Cl)cc45)C3)ncnc21` [Example 31], the IC50 on MRGPRX2 [1] and on MRGPRX2 [3] was 0.1 to 100 nM in each case.

As to `Cn1c(N[C@@H]2CCC[C@H](Nc3cc(C(F)(F)F)nc4ccc(Cl)cc34)C2)nc2cnccc21` [Example 32, (1S,3R)-N^1-(6-Chloro-2-(trifluoromethyl)quinolin-4-yl)-N^3-(1-methyl-1H-imidazo[4,5-c]pyridin-2-yl)cyclohexane-1,3-diamine], the IC50 at MRGPRX2 [1] and on MRGPRX2 [3] was 0.1 to 100 nM each time.

`FC(F)(F)c1cc(N[C@H]2CCC[C@@H](Nc3nnc4n3CCC4)C2)c2cc(Cl)ccc2n1` [Example 34, (1S,3R)-N^1-(6-Chloro-2-(trifluoromethyl)quinolin-4-yl)-N^3-(6,7-dihydro-5H-pyrrolo[2,1-c][1,2,4]triazol-3-yl)cyclohexane-1,3-diamine]: the IC50 fell in the range of 100 to 1000 nM on MRGPRX2 [1] and 0.1 to 100 nM on MRGPRX2 [3].
